Reference: the NIST ThermoML archive (doi:10.1021/acs.jced.6b00269)
± gives the expanded uncertainty stated by the source.

Settings: for viscosity / mass density: 101.33 kPa, Liquid; for viscosity: Cone and plate viscometry; for mass density: Vibrating tube method; for Normal melting temperature: Crystal, DTA; for Glass transition temperature: DSC

| SMILES | viscosity (278.15 K) | viscosity (283.15 K) | mass density (283.15 K) | viscosity (288.15 K) | mass density (288.15 K) | viscosity (293.15 K) | mass density (293.15 K) | mass density (295.15 K) | viscosity (298.15 K) | mass density (298.15 K) | viscosity (303.15 K) | mass density (303.15 K) | viscosity (308.15 K) | mass density (308.15 K) | viscosity (313.15 K) | mass density (313.15 K) | viscosity (318.15 K) | mass density (318.15 K) | viscosity (323.15 K) | mass density (323.15 K) | also measured |
| --- | --- | --- | --- | --- | --- | --- | --- | --- | --- | --- | --- | --- | --- | --- | --- | --- | --- | --- | --- | --- | --- |
| CCCC[P+](CC)(CC)CC.O=[N+]([O-])c1cn[n-]c1 [butyltriethylphosphonium 4-nitropyrazolide] | 840 ± 71 mPa·s | 551 ± 44 mPa·s | 1087.9 ± 6.4 kg/m3 | 372 ± 28 mPa·s | 1084.7 ± 6.4 kg/m3 | 261 ± 19 mPa·s | 1081.5 ± 6.3 kg/m3 | 1080.3 ± 6.3 kg/m3 | 189 ± 13 mPa·s | 1078.4 ± 6.3 kg/m3 | 141 ± 10 mPa·s | 1075.4 ± 6.3 kg/m3 | 108 ± 7 mPa·s | 1072.4 ± 6.2 kg/m3 | 85 ± 6 mPa·s | 1069.3 ± 6.2 kg/m3 | 67 ± 4 mPa·s | 1066.3 ± 6.2 kg/m3 | 55 ± 4 mPa·s | 1063.3 ± 6.1 kg/m3 | mass density (328.15 K): 1060.3 ± 6.1 kg/m3; mass density (333.15 K): 1057.3 ± 6.1 kg/m3; mass density (338.15 K): 1054.3 ± 6 kg/m3; mass density (343.15 K): 1051.3 ± 6 kg/m3; mass density (348.15 K): 1048.4 ± 5.9 kg/m3; mass density (353.15 K): 1045.4 ± 5.9 kg/m3; Normal melting temperature: 44 °C |
| CC[P+](CC)(CC)C1CCCC1.O=[N+]([O-])c1cn[n-]c1 [cyclopentyltriethylphosphonium 4-nitropyrazolide] |  |  |  |  |  |  |  |  |  |  |  |  |  |  |  |  |  |  |  |  | Normal melting temperature: 51 ± 2 °C |
| CCCCCCCCCC[P+](CC)(CC)CC.O=[N+]([O-])c1cn[n-]c1 [decyltriethylphosphonium 4-nitropyrazolide] | 1620 ± 150 mPa·s | 1030 ± 90 mPa·s | 1020 ± 5.6 kg/m3 | 678 ± 56 mPa·s | 1017 ± 5.6 kg/m3 | 461 ± 36 mPa·s | 1013.9 ± 5.6 kg/m3 | 1012.7 ± 5.5 kg/m3 | 325 ± 24 mPa·s | 1010.9 ± 5.5 kg/m3 | 236 ± 17 mPa·s | 1007.9 ± 5.5 kg/m3 | 175 ± 12 mPa·s | 1004.9 ± 5.5 kg/m3 | 133 ± 9 mPa·s | 1002 ± 5.4 kg/m3 | 104 ± 7 mPa·s | 999.1 ± 5.4 kg/m3 | 82 ± 5 mPa·s | 996.2 ± 5.4 kg/m3 | viscosity (328.15 K): 66 ± 4 mPa·s; mass density (328.15 K): 993.3 ± 5.3 kg/m3; viscosity (333.15 K): 54 ± 4 mPa·s; mass density (333.15 K): 990.4 ± 5.3 kg/m3; mass density (338.15 K): 987.5 ± 5.3 kg/m3; mass density (343.15 K): 984.6 ± 5.2 kg/m3; mass density (348.15 K): 981.7 ± 5.2 kg/m3; mass density (353.15 K): 978.8 ± 5.2 kg/m3; Normal melting temperature: 11 ± 2 °C; Glass transition temperature: -71 ± 2 °C |
| CCCCCCC[P+](CC)(CC)CC.O=[N+]([O-])c1cn[n-]c1 [triethylheptylphosphonium 4-nitropyrazolide] | 1000 ± 90 mPa·s | 657 ± 54 mPa·s | 1047.1 ± 5.9 kg/m3 | 443 ± 35 mPa·s | 1044 ± 5.9 kg/m3 | 309 ± 23 mPa·s | 1040.9 ± 5.9 kg/m3 | 1039.7 ± 5.8 kg/m3 | 223 ± 16 mPa·s | 1037.8 ± 5.8 kg/m3 | 165 ± 12 mPa·s | 1034.8 ± 5.8 kg/m3 | 126 ± 9 mPa·s | 1031.8 ± 5.8 kg/m3 | 97 ± 7 mPa·s | 1028.8 ± 5.7 kg/m3 | 77 ± 5 mPa·s | 1026 ± 5.7 kg/m3 | 62 ± 4 mPa·s | 1023.1 ± 5.7 kg/m3 | mass density (328.15 K): 1020.2 ± 5.6 kg/m3; mass density (333.15 K): 1017.3 ± 5.6 kg/m3; mass density (338.15 K): 1014.5 ± 5.6 kg/m3; mass density (343.15 K): 1011.6 ± 5.5 kg/m3; mass density (348.15 K): 1008.8 ± 5.5 kg/m3; mass density (353.15 K): 1006 ± 5.5 kg/m3; Normal melting temperature: 16 ± 2 °C; Glass transition temperature: -72 ± 2 °C |
| CCCCCCCCC[P+](CC)(CC)CC.O=[N+]([O-])c1cn[n-]c1 [triethylnonylphosphonium 4-nitropyrazolide] | 1370 ± 120 mPa·s | 888 ± 76 mPa·s | 1031 ± 5.7 kg/m3 | 593 ± 48 mPa·s | 1027.9 ± 5.7 kg/m3 | 409 ± 32 mPa·s | 1024.9 ± 5.7 kg/m3 | 1023.6 ± 5.7 kg/m3 | 291 ± 22 mPa·s | 1021.8 ± 5.6 kg/m3 | 213 ± 15 mPa·s | 1018.8 ± 5.6 kg/m3 | 160 ± 11 mPa·s | 1015.8 ± 5.6 kg/m3 | 123 ± 8 mPa·s | 1012.9 ± 5.5 kg/m3 | 96 ± 6 mPa·s | 1009.9 ± 5.5 kg/m3 | 77 ± 5 mPa·s | 1007 ± 5.5 kg/m3 | viscosity (328.15 K): 63 ± 4 mPa·s; mass density (328.15 K): 1004 ± 5.4 kg/m3; viscosity (333.15 K): 52 ± 3 mPa·s; mass density (333.15 K): 1001.1 ± 5.4 kg/m3; mass density (338.15 K): 998.2 ± 5.4 kg/m3; mass density (343.15 K): 995.3 ± 5.3 kg/m3; mass density (348.15 K): 992.4 ± 5.3 kg/m3; mass density (353.15 K): 989.5 ± 5.3 kg/m3; Normal melting temperature: 16 ± 2 °C; Glass transition temperature: -72 ± 2 °C |
| CCCCCCCC[P+](CC)(CC)CC.Cc1ncc([N+](=O)[O-])[n-]1 [triethyloctylphosphonium 2-methyl-5-nitroimidazolide] | 3720 ± 390 mPa·s | 2280 ± 220 mPa·s | 1037.8 ± 5.8 kg/m3 | 1440 ± 130 mPa·s | 1034.6 ± 5.8 kg/m3 | 940 ± 81 mPa·s | 1031.5 ± 5.8 kg/m3 | 1030.3 ± 5.7 kg/m3 | 637 ± 52 mPa·s | 1028.6 ± 5.7 kg/m3 | 446 ± 35 mPa·s | 1025.6 ± 5.7 kg/m3 | 321 ± 24 mPa·s | 1022.7 ± 5.7 kg/m3 | 237 ± 17 mPa·s | 1019.8 ± 5.6 kg/m3 | 179 ± 13 mPa·s | 1016.9 ± 5.6 kg/m3 | 138 ± 9 mPa·s | 1014.1 ± 5.6 kg/m3 | viscosity (328.15 K): 109 ± 7 mPa·s; mass density (328.15 K): 1011.2 ± 5.5 kg/m3; viscosity (333.15 K): 80 ± 5 mPa·s; mass density (333.15 K): 1008.4 ± 5.5 kg/m3; mass density (338.15 K): 1005.6 ± 5.5 kg/m3; mass density (343.15 K): 1002.7 ± 5.4 kg/m3; mass density (348.15 K): 999.9 ± 5.4 kg/m3; mass density (353.15 K): 997.1 ± 5.4 kg/m3; Glass transition temperature: -67 ± 2 °C |
